Data: patent publication US20260286306A1, “Culture Medium, Production Method, and Cell Preparation19155704” (National University Corporation Kumamoto University, priority 2023, published 2026)

Assays:
[1] = system: EPCR High cell group (hematopoietic stem cells); test: ex vivo culture of mouse EPCR High cell group for 4 days, flow cytometry and cell count; assay type: cell-based; details: for proportion of EPCR High in hematopoietic stem cells (EPCR High phenotype): flow cytometry; for number of cells compared with the control: 4 days culture, FIG. 7(B)
Text: The expression of c-kit and EPCR in a hematopoietic stem cell fraction (lineage: CD150+, CD48−) isolated from a mouse by using flow cytometry was checked. Among the c-kit-positive and EPCR-positive cells, a cell group of the top 30% of the EPCR-positive cells was defined as an EPCR High cell group, and a cell group of the bottom 30% of the EPCR-positive cells was defined as an EPCR Low cell group (see FIG. 1). Each cell group was transplanted into a recipient mouse, and 20 weeks later, the proportion of cells derived from the transplanted stem cells was examined in the peripheral blood (PB). In addition, at the same time, the proportion of cells derived from the transplanted stem cells was examined in the hematopoietic stem cell fraction (L-ESLAM) in the bone marrow after 20 weeks of the transplantation. The experiment was carried out twice.
As shown in FIG. 5(A), α-ketoglutaric acid (αKG), which is an intermediate metabolite of the TCA cycle, is also produced from glutamic acid or the like, and then it is supplied to the TCA cycle. In addition, in the production of a-ketoglutaric acid from glutamic acid, two pathways of a transaminase pathway and a glutamate dehydrogenase pathway are used (see FIG. 5(B)). Therefore, the proportion of EPCR High in hematopoietic stem cells was determined in a case where the EPCR High cell group was cultured for 4 days by adding each of an inhibitor R162 (30 μM) of glutamate dehydrogenase and an inhibitor aminooxyacetic acid (AOA) (50 μM) of transaminase to the culture medium, and in a case where the content of […], which is the source of glutamic acid synthesis, was set to 1/100 (0.02 mM) in FIG. 5(A) (Low Neu.).
The above-described mouse EPCR High cell group was cultured for 4 days by adding EGCG (50 μM), which is another glutamate dehydrogenase inhibitor, to a culture medium.

recipient mouse = test: transplantation of cultured cell groups into a recipient mouse, proportion of donor-derived cells; assay type: in vivo
Procedure: Mouse EPCR High cells were cultured for 4 days under the normal culture conditions or in the presence of R162, and 50 cells of each of an EPCR High cell group (Control) generated under the normal culture conditions, an EPCR Low cell group (Control), and an EPCR High cell group (R162) amplified in the presence of R162 were aliquoted and then transplanted into a recipient mouse. Then, after 4 weeks and 12 weeks, the proportion of cells derived from donor cells in the peripheral blood was examined.
Further, the EPCR High cells were cultured for 4 days under the normal culture conditions and cultured for 4 days in the presence of R162, and the EPCR High cell group generated under the normal culture conditions, the EPCR Low cell group, and the EPCR High cell group (R162) amplified in the presence of R162 were each transplanted into a recipient mouse. Then, 20 weeks later, the proportion of cells derived from donor cells was examined in the peripheral blood and the hematopoietic stem cell fraction in the bone marrow (L-ESLAM (BM)).

[2] = system: Human CD34+ bone marrow cells; test: culture of human CD34+ bone marrow cells for 7 days, total cell number and flow cytometry; assay type: cell-based; details: R162 30 μM
Procedure: Human CD34^+ bone marrow cells (10,000 cells) were cultured for 7 days under normal culture conditions or in the presence of a glutamate dehydrogenase inhibitor R162 (30 μM), and then the total number of cells was analyzed. Then, the proportion of hematopoietic stem cells (lineage: CD34+CD38−CD90+cells) was analyzed using a flow cytometer, and from the results, the number of stem cells was estimated. FIG. 13 and FIG. 14 show the results. As shown in FIG. 14(A), it has been confirmed that the total number of cells is not changed by the presence of R162 as compared with the control, whereas as shown in FIG. 14(B), the ratio of stem cells after culturing is increased by the presence of R162.
The culture medium used for the ex vivo culture of human CD34+ bone marrow cells is a culture medium obtained by adding, to the RPMI medium, L-Alanin (4.45 mg/L), Zinc Sulfate Heptahydrate (0.432 mg/L), Cupric Sulfate Pentahydrate (0.0013 mg/L), Ferric Nitrate Nonahydrate (0.05 mg/L), Ferrous Sulfate Heptahydrate (0.417 mg/L), Linoleic acid (0.042 mg/L), Hypoxanthine (2.1 mg/L), Putrescine+2HCL (0.081 mg/L), Thioctic Acid (0.105 mg/L), Thymidine (0.365 mg/L), Sodium Pyruvate (55 mg/L), HEPES (1 mM), a penicillin-streptomycin mixed solution (Nacalai Tesque, Inc.: 26253-84) (1/100 capacity), Insulin-Transferrin-Selenium-Ethanolamine (Thermo Fisher Scientific, Inc.: 51500056) (1/100 capacity), and AlbuMAXtm I Lipid-Rich BSA (Thermo Fisher Scientific, Inc.: 11020021) (2%).

Structure (SMILES): C=CCc1ccc2c(c1O)C(=O)c1ccccc1C2=O [R162, 2-allyl-1-hydroxy-9,10-anthraquinone]
- fold induction at 30 µM ([1]; Mus musculus, Hematopoietic stem cell, 96 h, culture in the presence of R162 (30 μM), 4 days, read-out: increase in number of cells having the EPCR High phenotype compared with normal culture conditions): ~2
- proportion of EPCR High in hematopoietic stem cells (EPCR High phenotype) ([1]; R162 30 μM in culture medium, 4 days, FIG. 6/7(A)): phenotype of EPCR High is maintained
- number of cells compared with the control ([1]; R162 30 μM): about the same level as that of the control
- proportion of cells derived from donor cells in the peripheral blood (ability to reconstruct hematopoietic tissue) (recipient mouse; 50 EPCR High cells amplified 4 days in the presence of R162, transplanted, 4 weeks and 12 weeks, FIG. 8): high ability to reconstruct hematopoietic tissue, which is equivalent to the EPCR High cell group (Control)
- proportion of cells derived from donor cells in peripheral blood and bone marrow hematopoietic stem cell fraction (L-ESLAM (BM)) (recipient mouse; EPCR High cells amplified 4 days in the presence of R162, transplanted, 20 weeks, vs EPCR High and EPCR Low (Control), FIG. 12): high ability to maintain the reconstructed hematopoiesis for a longer period of time
- total number of cells compared with the control ([2]; 7 days, 10,000 cells seeded, FIG. 14(A)): not changed
- ratio of stem cells (CD34+CD38−CD90+ cells) after culturing ([2]; 7 days, flow cytometer, FIG. 14(B)): increased
- number of stem cells compared with normal culture conditions ([2]; 7 days, estimated from total cell number and stem cell proportion): number of stem cells is increased

Structure (SMILES): NOCC(=O)O [AOA, aminooxyacetic acid]
- number of cells compared with the control ([1]; AOA 50 μM): significantly reduced

Structure (SMILES): O=C(O[C@@H]1Cc2c(O)cc(O)cc2O[C@@H]1c1cc(O)c(O)c(O)c1)c1cc(O)c(O)c(O)c1 [EGCG, epigallo catechin-3-gallate]
- proportion of EPCR High in hematopoietic stem cells (EPCR High phenotype) ([1]; EGCG 50 μM in culture medium, 4 days, FIG. 15): phenotype of EPCR High is maintained
